Molecules are shown by their SMILES. pIC50: −log10 of the molar value. A value given as a limit tells only on which side of the number the result lay.

What all share (format): cell-based
In test [1] the target is T1, BaF3 TELJAK3 cells (Homo sapiens, UniProt P52333).
T1 construct: fused on or other part: TEL (ETV6) N-terminal part, coding nucleotides 1-487, serves as the oligomerising partner; It is fused through a Sal I site to the JAK3 kinase domain and expressed from pTRE2 in BaF3 cells bearing pTET-off; P41212 (Transcription factor ETV6)
T1 sequence (P52333 1-1124): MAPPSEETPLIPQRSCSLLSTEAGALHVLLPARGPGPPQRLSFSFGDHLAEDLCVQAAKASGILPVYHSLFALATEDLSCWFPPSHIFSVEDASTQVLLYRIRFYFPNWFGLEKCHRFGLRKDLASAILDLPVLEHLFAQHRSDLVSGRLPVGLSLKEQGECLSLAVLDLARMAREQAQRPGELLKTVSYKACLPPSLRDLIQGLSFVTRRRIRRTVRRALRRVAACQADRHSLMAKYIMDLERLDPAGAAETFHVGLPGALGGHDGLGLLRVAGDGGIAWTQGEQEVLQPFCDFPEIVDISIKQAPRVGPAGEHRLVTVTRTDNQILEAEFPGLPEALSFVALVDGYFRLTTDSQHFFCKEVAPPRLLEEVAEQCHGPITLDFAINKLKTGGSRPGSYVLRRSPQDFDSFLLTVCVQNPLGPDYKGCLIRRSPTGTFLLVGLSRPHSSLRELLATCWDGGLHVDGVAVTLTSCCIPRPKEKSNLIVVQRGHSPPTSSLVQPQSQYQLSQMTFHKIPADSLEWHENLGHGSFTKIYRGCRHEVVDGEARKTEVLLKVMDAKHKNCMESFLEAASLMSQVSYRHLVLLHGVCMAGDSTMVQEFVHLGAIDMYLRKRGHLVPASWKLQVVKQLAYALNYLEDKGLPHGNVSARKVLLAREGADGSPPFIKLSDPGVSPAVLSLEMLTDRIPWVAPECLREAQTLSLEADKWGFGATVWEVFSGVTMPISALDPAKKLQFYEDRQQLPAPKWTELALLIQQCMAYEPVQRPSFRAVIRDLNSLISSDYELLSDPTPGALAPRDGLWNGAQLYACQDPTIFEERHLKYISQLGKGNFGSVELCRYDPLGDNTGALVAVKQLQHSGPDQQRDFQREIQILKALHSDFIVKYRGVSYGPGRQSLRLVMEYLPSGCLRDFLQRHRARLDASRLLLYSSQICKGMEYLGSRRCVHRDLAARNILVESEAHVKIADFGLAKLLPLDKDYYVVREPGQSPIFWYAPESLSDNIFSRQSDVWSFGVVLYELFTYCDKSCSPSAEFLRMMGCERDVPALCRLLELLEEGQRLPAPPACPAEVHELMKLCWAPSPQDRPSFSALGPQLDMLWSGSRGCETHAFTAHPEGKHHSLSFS
Description: Cellular screening, BaF3 TEL:JAK3 cells, Alamar Blue. The conditions noted are these: 40 hr, read-out: BafT_J3 IC50_nM. In outline: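 Alamar Blue signal at 544 nm, developed for 4–6 h, measured viability after 40 h of compound treatment at 37 °C, 5% CO2. Cells were growth-factor-independent BaF3 lines transfected with a TEL/JAK3 kinase-domain fusion under tet-off control. They were cultured in DMEM, 10% Tet-approved FBS, lacking WEHI 3B conditioned medium.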

Test [2] addresses T2, BaF3 TELJAK2 cells (BafT_J2) (Homo sapiens, UniProt O60674).
T2 construct: fused on or other part: TEL (ETV6) N-terminal part, coding nucleotides 1-487, serves as the oligomerising partner; It is fused through a Sal I site to the JAK2 kinase domain and expressed from pTRE2 in BaF3 cells bearing pTET-off; P41212 (Transcription factor ETV6)
Description: Cellular screening, BaF3 TEL:JAK2 cells, Alamar Blue. The settings on record: 40 hr, read-out: BafT_J2 IC50_nM. Put shortly:
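Tet-off BaF3 cells carrying a TEL (nt 1-487)–JAK2 kinase-domain fusion, grown factor-independently in DMEM with 10% Tet-approved FBS without WEHI 3B medium. Compounds were diluted to 20 μM in screening plates, and cells (50,000–200,000 cell/mL at 1.1×) were incubated 40 hr at 37 °C, 5% CO2. Alamar Blue was then added for 4-6 hours; read at 544 nm.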

Test [3] has as its system CTLL2. In words: Cellular screening, CTLL2 cells, Alamar Blue. The conditions noted are these: Mus musculus, CTLL-2, read-out: CTLL2 IC50_nM. Put shortly:
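Viability is read with Alamar Blue at 544 nm, the dye added for the final 4-6 hours. Compounds were incubated for 40 hr with CTLL2 cells taken from late-log-phase culture, at 37° C in 5% CO2.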
Background: Alamar Blue is a resazurin reagent that responds to reducing activity.

T2 sequence (O60674 whole entry, change not shown, the tested form may be a part): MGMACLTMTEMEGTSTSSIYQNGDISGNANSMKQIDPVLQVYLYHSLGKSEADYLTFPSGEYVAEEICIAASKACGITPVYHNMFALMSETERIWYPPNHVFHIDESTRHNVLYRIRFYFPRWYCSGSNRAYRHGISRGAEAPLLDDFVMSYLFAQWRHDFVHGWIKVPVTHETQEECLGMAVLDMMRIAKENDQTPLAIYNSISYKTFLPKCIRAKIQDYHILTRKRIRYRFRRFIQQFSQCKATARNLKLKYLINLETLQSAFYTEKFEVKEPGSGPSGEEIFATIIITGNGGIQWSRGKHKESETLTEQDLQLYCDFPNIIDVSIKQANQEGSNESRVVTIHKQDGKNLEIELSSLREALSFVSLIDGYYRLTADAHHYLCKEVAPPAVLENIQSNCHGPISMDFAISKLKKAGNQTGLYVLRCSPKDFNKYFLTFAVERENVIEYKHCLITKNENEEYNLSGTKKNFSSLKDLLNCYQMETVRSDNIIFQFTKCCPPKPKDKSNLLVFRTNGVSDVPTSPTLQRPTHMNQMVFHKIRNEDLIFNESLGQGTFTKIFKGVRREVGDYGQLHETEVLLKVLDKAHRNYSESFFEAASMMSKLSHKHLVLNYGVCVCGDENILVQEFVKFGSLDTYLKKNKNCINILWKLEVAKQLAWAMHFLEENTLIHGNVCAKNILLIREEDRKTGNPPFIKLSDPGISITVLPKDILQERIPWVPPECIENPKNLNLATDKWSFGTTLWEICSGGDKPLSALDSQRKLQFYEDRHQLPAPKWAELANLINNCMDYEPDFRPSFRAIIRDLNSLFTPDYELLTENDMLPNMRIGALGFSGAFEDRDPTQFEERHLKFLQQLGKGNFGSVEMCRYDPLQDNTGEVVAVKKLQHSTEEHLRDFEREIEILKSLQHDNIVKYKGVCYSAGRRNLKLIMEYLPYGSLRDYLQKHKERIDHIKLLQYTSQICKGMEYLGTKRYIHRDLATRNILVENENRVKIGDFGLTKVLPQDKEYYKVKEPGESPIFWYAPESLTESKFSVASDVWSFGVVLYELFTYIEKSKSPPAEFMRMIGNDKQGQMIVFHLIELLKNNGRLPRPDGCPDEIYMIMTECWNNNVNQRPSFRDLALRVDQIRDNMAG

`C=CC(=O)Nc1cc(C)c(Sc2nc(Nc3ccc(N4CCOCC4)cc3)ncc2C)c(C)c1` [Compound 164, N-(3,5-dimethyl-4-(5-methyl-2-(4-morpholinophenylao)pyrimidin-4-ylthio)phenyl)acrylamide]: the GI50 in test [1] was below 1 µM; in test [2], below 20 µM. Besides, in test [3], the pIC50 was above 6.00.
Turning to `C=CC(=O)Nc1ccc(Sc2ccnc(Nc3ccc(OC)c(O)c3)n2)cc1` [Compound 97], the GI50 in test [1] was below 1 µM; in test [2] it was below 5 µM. Also, in test [3], the pIC50 was above 6.00.
`C=CC(=O)Nc1ccc(Sc2nc(Nc3ccc(N4CCS(=O)(=O)CC4)cc3)ncc2C)cc1` [Compound 298, N-{4-[(2-{[4-(1,1-dioxo-1λ^6,4-thiomorpholin-4-yl)phenyl]ao}-5-methylpyrimidin-4-yl)sulfanyl]phenyl}prop-2-enamide]: the GI50 in test [1] was below 1 µM; in test [2] it was below 20 µM. In addition, the pIC50 in test [3] was above 6.00.
In the case of `C=CC(=O)Nc1ccc(Sc2ccnc(Nc3ccc(N4CCOCC4)cc3)n2)c(Cl)c1C` [Compound 161, N-(3-chloro-2-methyl-4-(2-(4-morpholinophenylao)pyrimidin-4-ylthio)phenyl)acrylamide], the GI50 in test [1] was below 1 µM; in test [2] it was above 20 µM. Also, the pIC50 in test [3] was above 5.30.
With `CSc1nc(Nc2ccc(N3CCOCC3)cc2)ncc1C` [Compound 176, 5-methyl-4-(methylthio)-N-(4-morpholinophenyl)pyrimidin-2-ae], the GI50 in test [1] and in test [2] was below 5 µM each time. In addition, the pIC50 in test [3] is above 5.30.
For `C=CC(=O)Nc1ccc(Sc2ccnc(Nc3ccccc3O)n2)cc1` [Compound 279, N-(4-(2-(2-hydroxyphenylao)pyrimidin-4-ylthio)phenyl)acrylamide], the GI50 in test [1] and in test [2] was below 20 µM throughout. In test [3], the pIC50 was above 4.70.
For `C=CC(=O)Nc1ccc(Sc2nc(Nc3ccc(O)cc3)ncc2C)cc1` [Compound 282, N-(4-(2-(4-hydroxyphenylao)-5-methylpyrimidin-4-ylthio)phenyl)acrylamide], the GI50 in test [1] is below 1 µM; in test [2] it was below 20 µM. Moreover, the pIC50 in test [3] was above 6.00.
Turning to `Cc1cnc(Nc2ccc(N3CCOCC3)cc2)nc1Sc1ccc(NC(=O)/C=C/Cl)cc1` [Compound 343, (E)-3-chloro-N-(4-(5-methyl-2-(4-morpholinophenylao)pyrimidin-4-ylthio)phenyl)acrylamide], the GI50 was below 5 µM in test [1] and below 20 µM in test [2]. In addition, in test [3], the pIC50 was above 5.30.
Consider `NC(=O)c1nccn1Cc1ccc(Sc2ccnc(Nc3ccc(N4CCOCC4)cc3)n2)cc1` [Compound 149, 1-(4-(2-(4-morpholinophenylao)pyrimidin-4-ylthio)benzyl)-1H-imidazole-2-carboxamide], for which the GI50 in test [1] and in test [2] was below 5 µM each time. The pIC50 in test [3] was above 4.70.
Consider `C=CC(=O)Nc1ccc(Sc2ccnc(Nc3ccc(Cl)cc3)n2)cc1` [Compound 353, N-(4-(2-(4-chlorophenylao)pyrimidin-4-ylthio)phenyl)acrylamide], for which the GI50 in test [1] is below 5 µM; in test [2] it was below 20 µM. In addition, the pIC50 in test [3] was above 5.30.
Turning to `c1cn(Cc2ccc(Sc3ccnc(Nc4ccc(N5CCOCC5)cc4)n3)cc2)cn1` [Compound 127, 4-(4-((1H-imidazol-1-yl)methyl)phenylthio)-N-(4-morpholinophenyl)pyrimidin-2-ae], the GI50 in test [1] and in test [2] was below 20 µM throughout. Also, the pIC50 in test [3] was above 4.70.
As to `C=CC(=O)Nc1ccc(Sc2ccnc(Nc3ccc(S(=O)(=O)N4CCOCC4)cc3)n2)cc1` [Compound 367, N-(4-(2-(4-(morpholinosulfonyl)phenylao)pyrimidin-4-ylthio)phenyl)acrylamide], the GI50 is below 5 µM in test [1] and below 20 µM in test [2]. In addition, the pIC50 in test [3] was above 4.70.
Take `C=CC(=O)Nc1ccc(Sc2nc(Nc3ccc(N4CCOCC4)cc3)ncc2C)c(Cl)c1C` [Compound 171, N-(3-chloro-2-methyl-4-(5-methyl-2-(4-morpholinophenylao)pyrimidin-4-ylthio)phenyl)acrylamide]: the GI50 is below 5 µM in test [1] and above 20 µM in test [2]. Also, the pIC50 in test [3] was above 4.70.
As for `Cc1cnc(Nc2ccc(N3CCOCC3)cc2)nc1Sc1ccc(C#N)cc1` [Compound 136, 4-(5-methyl-2-(4-morpholinophenylao)pyrimidin-4-ylthio)benzonitrile], the GI50 in test [1] and in test [2] was above 20 µM in each case. For the same compound, the pIC50 in test [3] was below 4.70.
`Cc1cnc(Nc2ccc(N3CCOCC3)cc2)nc1Sc1ccc(N2C(=O)CCC2=O)cc1` [Compound 384, 1-(4-(5-methyl-2-(4-morpholinophenylao)pyrimidin-4-ylthio)phenyl)pyrrolidine-2,5-dione]: the GI50 in test [1] and in test [2] was above 20 µM in each case. Also, the pIC50 in test [3] was below 4.70.
With `CCOC(=O)c1nccn1Cc1ccc(Sc2ccnc(Nc3ccc(N4CCOCC4)cc3)n2)cc1` [Compound 148, ethyl 1-(4-(2-(4-morpholinophenylao)pyrimidin-4-ylthio)benzyl)-1H-imidazole-2-carboxylate], the GI50 in test [1] and in test [2] was below 20 µM throughout. Besides, the pIC50 in test [3] is above 4.70.

(Values after US8846704B2, “Thiopyrimidine-based compounds and uses thereof” (YM Biosciences Austraila Pty Ltd, priority 2007, dated 2014).)
